Active and inactive are the calls of the source. No cut-off for these calls is given here.
Legend:
[1] = Inhibition of HSV type-2 DNA polymerase after 30 mins by liquid scintillation counting analysis in presence of dATP, dCTP, dGTP and [3H]-TTP; set-up: species or system Human alphaherpesvirus 2
[2] = tested on: Human alphaherpesvirus 2; test: Antiviral activity against Human herpesvirus 2 infected in CF mouse assessed as suppression of virus-induced dermatitis at 800 mg/kg/day, po administered for 6 days measured after day 17; assay type: functional, organism-based
[3] = tested on: Human alphaherpesvirus 2; test: Antiviral activity against Human herpesvirus 2 infected in CF mouse assessed as suppression of virus-induced dermatitis administered topically as 2% aqueous solution twice daily for 6 days measured after day 17; assay type: functional, organism-based
[4] = tested on: Human alphaherpesvirus 2; test: Antiviral activity against Human herpesvirus 2 infected in CF mouse assessed as suppression of virus-induced dermatitis at 100 to 1000 mg/kg/day, po administered for 6 days measured after day 17; assay type: functional, organism-based

SMILES: O=C(CP(=O)(O)O)OC1CCCCC1
- I50 [1]: 49 µg/mL

SMILES: O=C(O)CP(=O)(O)c1ccccc1
- Activity [2]: inactive
- Activity [3]: inactive
- I50 [1]: 200 µg/mL

SMILES: CCCCCCCCOC(=O)CP(=O)(O)O
- I50 [1]: 0.26 µg/mL

SMILES: COc1ccc(P(=O)(O)CC(=O)O)cc1
- Activity [2]: inactive
- Activity [3]: inactive
- I50 [1]: 150 µg/mL

SMILES: COP(=O)(O)CC(=O)O
- I50 [1]: 19.9 µg/mL

SMILES: CCCCCCOP(=O)(O)CC(=O)O
- Activity [2]: Active
- Activity [3]: Active

SMILES: CP(=O)(O)CC(=O)O
- Activity [3]: inactive
- I50 [1]: 145 µg/mL

SMILES: O=C(O)CP(=O)([O-])[O-].[Na+].[Na+] [DISODIUM CARBOXYMETHYLPHOSPHONATE]
- I50 [1]: 0.22 µg/mL

SMILES: CCCOP(=O)(O)CC(=O)O
- I50 [1]: 200 µg/mL

SMILES: O=C(CP(=O)(O)O)OCc1ccccc1
- I50 [1]: 40 µg/mL

SMILES: CC(C)(C)OC(=O)CP(=O)(O)O
- I50 [1]: 3.9 µg/mL

SMILES: CCCOC(=O)CP(=O)(O)O
- Activity [4]: Active
- Activity [3]: Active
- I50 [1]: 0.16 µg/mL
